Blank lines part the entries; values can stand above or below the compound they belong to. The source made the active and inactive calls.
Legend:
Cannabinoid receptor 2 [1] = biological target: T1, Cannabinoid receptor 2 (Homo sapiens, UniProt P34972); experiment: SAR analysis of agonists of the Cannabinoid Receptor 2 using an Image-Based Assay - Set 2. [Related pubchem assays (depositor defined):AID1961, AID1965]; type: functional
Cannabinoid receptor 2 [2] = biological target: T1, Cannabinoid receptor 2; experiment: SAR analysis of antagonists of the Cannabinoid Receptor 2 using an Image-Based Assay - Set 2. [Related pubchem assays (depositor defined):AID1961, AID1965]; type: functional
[3] = biological target: G-protein coupled receptor 55 (Homo sapiens, UniProt Q9Y2T6); experiment: SAR analysis of selective Agonists of GPR55 using an Image-Based Assay - Set 2. [Related pubchem assays (depositor defined):AID1961, AID1965]; type: functional
[4] = biological target: T2, G-protein coupled receptor 35 (Homo sapiens, UniProt Q9HC97); experiment: SAR analysis of Antagonists of the GPR35 Receptor using an Image-Based Assay - Set 4. [Related pubchem assays (depositor defined):[…]]; type: functional
Cannabinoid receptor 1 [5] = biological target: T3, Cannabinoid receptor 1 (Homo sapiens, UniProt P21554); experiment: SAR analysis of antagonists of the Cannabinoid Receptor 1 using an Image-Based Assay - Set 3. [Related pubchem assays (depositor defined):AID1961, AID1965]; type: functional
[6] = biological target: T2, G-protein coupled receptor 35; experiment: SAR analysis of Agonists of the GPR35 Receptor using an Image-Based Assay - Set 3. [Related pubchem assays (depositor defined):AID1961, AID1965]; type: functional
Cannabinoid receptor 1 [7] = biological target: T3, Cannabinoid receptor 1; experiment: SAR analysis of agonists of the Cannabinoid Receptor 1 using an Image-Based Assay - Set 3. [Related pubchem assays (depositor defined):AID1961, AID1965]; type: functional
[8] = biological target: Peroxisome proliferator-activated receptor gamma/Nuclear receptor coactivator 3 (Homo sapiens, UniProt P37231); experiment: (§1) TR-FRET dose response biochemical High Throughput Screening assay for agonists of the steroid receptor coactivator 3 (SRC-3) recruitment by the peroxisome proliferator-activated receptor gamma (PPAR gamma): non-selective agonists. [Related pubchem assays: 1301 (Confirmation screen.), 1048 (Primary screen.)]; type: functional
[9] = biological target: Peroxisome proliferator-activated receptor gamma/Nuclear receptor coactivator 1 (Homo sapiens, UniProt P37231); experiment: as §1, with “1 (SRC-1)” for “3 (SRC-3)”, “assays (depositor defined):AID1300, AID1808, AID504735, AID631]” for “assays: 1301 (Confirmation screen.), 1048 (Primary screen.)]”; type: protein assay
[10] = biological target: Peroxisome proliferator-activated receptor gamma/Nuclear receptor coactivator 2 (Homo sapiens, UniProt P37231); experiment: TR-FRET dose response biochemical High Throughput Screening assay for agonists of the steroid receptor coactivator 2 (SRC-2) recruitment by the peroxisome proliferator-activated receptor gamma (PPAR gamma): non-selective agonists. [Related pubchem assays: 1297, 1032 ]; type: functional
[11] = Luminescence Cell-Based Dose Retest to Confirm Inhibitors of Cancer Stem Cells. [Related pubchem assays (depositor defined):AID2717, AID2721]; type: functional; settings: Homo sapiens
[12] = biological target: T4, Tyrosine-protein phosphatase non-receptor type 22 (Homo sapiens, UniProt Q9Y2R2); experiment: PTPN22 lymphoid phosphatase activity blockers – biochemical, fluorescence intensity, uHTS (AID 1779)
T4 sequence (Q9Y2R2 whole entry): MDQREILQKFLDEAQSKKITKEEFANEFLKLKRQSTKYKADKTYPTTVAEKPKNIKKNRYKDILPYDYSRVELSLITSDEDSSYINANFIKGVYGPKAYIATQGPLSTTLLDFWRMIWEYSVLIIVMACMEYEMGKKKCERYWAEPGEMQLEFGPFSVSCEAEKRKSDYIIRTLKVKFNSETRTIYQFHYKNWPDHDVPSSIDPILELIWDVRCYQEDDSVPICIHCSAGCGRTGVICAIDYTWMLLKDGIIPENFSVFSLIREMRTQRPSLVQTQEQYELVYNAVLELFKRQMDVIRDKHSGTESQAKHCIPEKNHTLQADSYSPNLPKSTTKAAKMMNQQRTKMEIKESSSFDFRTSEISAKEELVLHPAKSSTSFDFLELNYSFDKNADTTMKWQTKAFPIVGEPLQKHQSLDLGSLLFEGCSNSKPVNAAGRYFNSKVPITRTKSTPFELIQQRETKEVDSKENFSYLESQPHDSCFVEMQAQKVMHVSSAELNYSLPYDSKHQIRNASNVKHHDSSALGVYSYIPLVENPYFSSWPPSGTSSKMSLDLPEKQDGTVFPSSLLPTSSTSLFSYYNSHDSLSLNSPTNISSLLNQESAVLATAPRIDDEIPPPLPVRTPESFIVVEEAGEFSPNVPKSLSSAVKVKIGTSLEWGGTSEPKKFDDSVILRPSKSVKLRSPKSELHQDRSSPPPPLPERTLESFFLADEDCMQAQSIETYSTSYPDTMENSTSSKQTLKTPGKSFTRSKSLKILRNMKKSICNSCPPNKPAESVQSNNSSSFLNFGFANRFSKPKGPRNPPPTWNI

[13] = biological target: DNA (cytosine-5)-methyltransferase 1 (Homo sapiens, UniProt P26358); experiment: inhibition of DNA methylation by DNMT1 – biochemical, fluorescent molecular beacon, confirmation (AID 602386); type: functional
[14] = biological target: T5, Voltage-gated N-type calcium channel alpha-1B subunit/Amyloid beta A4 precursor protein-binding family A member 1 (Homo sapiens, UniProt Q00975+Q02410); type: protein assay
[15] = biological target: Tyrosine-protein phosphatase non-receptor type 12 (Homo sapiens, UniProt Q05209); experiment: SAR Selectivity Analysis of small molecule inhibitors of PEST using pCAP in a fluorescence assay. [Related pubchem assays (depositor defined):AID1779, AID1784, AID2135]; type: functional
[16] = biological target: T4, Tyrosine-protein phosphatase non-receptor type 22; experiment: SAR LYP1 Fluorescent Assay using OMFP substrate for In Vitro dose response studies - Set 3. [Related pubchem assays (depositor defined):AID1779, AID1784, AID2140, AID2686]; type: functional
[17] = biological target: T4, Tyrosine-protein phosphatase non-receptor type 22; type: functional
[18] = biological target: T4, Tyrosine-protein phosphatase non-receptor type 22; experiment: SAR LYP1 Fluorescent Assay using OMFP substrate for In Vitro dose response studies - Set 2. [Related pubchem assays (depositor defined):AID1779, AID1784, AID2140, AID449726, AID488869]; type: functional
[19] = biological target: T4, Tyrosine-protein phosphatase non-receptor type 22; experiment: LYP1 Fluorescent Assay using OMFP substrate for In Vitro dose response studies. [Related pubchem assays (depositor defined):AID1779, AID1784, AID435024]
[20] = biological target: T6, Tyrosine-protein phosphatase non-receptor type 7 (Homo sapiens, UniProt P35236); type: functional
T6 sequence (P35236 whole entry): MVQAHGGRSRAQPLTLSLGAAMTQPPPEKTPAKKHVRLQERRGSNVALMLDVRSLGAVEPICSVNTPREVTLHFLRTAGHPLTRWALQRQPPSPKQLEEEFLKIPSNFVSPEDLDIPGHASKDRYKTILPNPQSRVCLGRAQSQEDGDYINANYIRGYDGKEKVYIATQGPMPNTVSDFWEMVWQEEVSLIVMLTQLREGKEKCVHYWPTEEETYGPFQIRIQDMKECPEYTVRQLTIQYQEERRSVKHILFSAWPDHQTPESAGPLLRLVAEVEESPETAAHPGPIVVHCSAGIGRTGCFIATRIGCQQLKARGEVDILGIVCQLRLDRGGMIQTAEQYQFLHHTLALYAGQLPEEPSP

[21] = biological target: T4, Tyrosine-protein phosphatase non-receptor type 22; type: functional; remark: listed apart in the source
[22] = biological target: T5, Voltage-gated N-type calcium channel alpha-1B subunit/Amyloid beta A4 precursor protein-binding family A member 1; type: protein assay; remark: listed apart in the source
[23] = biological target: T6, Tyrosine-protein phosphatase non-receptor type 7; experiment: HTS HePTP Fluorescent Assay using OMFP substrate for In Vitro dose response studies. [Related pubchem assays (depositor defined):AID1059, AID1077, AID1784, AID2068, AID2085, AID435032, AID521]; type: functional
[24] = biological target: T4, Tyrosine-protein phosphatase non-receptor type 22; experiment: inhibition of lymphoid tyrosine phosphatase LYP – biochemical, pCAP fluorogenic substrate, fluorescence, set 3, SAR follow-up (AID 449727); type: functional
[25] = biological target: T4, Tyrosine-protein phosphatase non-receptor type 22; experiment: SAR LYP1 Fluorescent Assay using pCAP substrate for In Vitro dose response studies - Set 2. [Related pubchem assays (depositor defined):AID1779, AID1784, AID2135, AID449727]; type: functional
[26] = biological target: Intestinal-type alkaline phosphatase (Homo sapiens, UniProt P09923); experiment: human intestinal alkaline phosphatase activators, dose response, biochemical, luminescence, uHTS hits (AID 463120); type: functional
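For AC50 in this document: cells exposed to compound for roughly 70 hours or longer before luminescence read.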

T1 sequence (P34972 whole entry): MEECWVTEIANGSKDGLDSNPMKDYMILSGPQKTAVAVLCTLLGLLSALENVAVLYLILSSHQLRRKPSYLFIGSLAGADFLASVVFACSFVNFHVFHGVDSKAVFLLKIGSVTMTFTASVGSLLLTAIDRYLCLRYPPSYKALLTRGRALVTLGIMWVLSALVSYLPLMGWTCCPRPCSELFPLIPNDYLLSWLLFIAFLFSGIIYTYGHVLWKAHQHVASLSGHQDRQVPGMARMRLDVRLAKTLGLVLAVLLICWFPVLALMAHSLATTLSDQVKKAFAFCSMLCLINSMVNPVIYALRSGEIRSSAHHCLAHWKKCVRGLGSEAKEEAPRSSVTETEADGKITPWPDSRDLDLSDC
T2 sequence (Q9HC97 whole entry): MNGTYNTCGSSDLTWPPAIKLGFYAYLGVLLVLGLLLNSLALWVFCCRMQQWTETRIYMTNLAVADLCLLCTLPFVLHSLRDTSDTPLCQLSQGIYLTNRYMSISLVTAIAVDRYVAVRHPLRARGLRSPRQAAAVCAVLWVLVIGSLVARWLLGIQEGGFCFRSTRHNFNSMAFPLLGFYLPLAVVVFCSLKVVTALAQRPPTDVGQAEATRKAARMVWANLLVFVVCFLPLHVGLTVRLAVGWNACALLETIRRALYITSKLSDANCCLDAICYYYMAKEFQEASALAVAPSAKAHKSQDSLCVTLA
T5 sequence (Q00975 whole entry): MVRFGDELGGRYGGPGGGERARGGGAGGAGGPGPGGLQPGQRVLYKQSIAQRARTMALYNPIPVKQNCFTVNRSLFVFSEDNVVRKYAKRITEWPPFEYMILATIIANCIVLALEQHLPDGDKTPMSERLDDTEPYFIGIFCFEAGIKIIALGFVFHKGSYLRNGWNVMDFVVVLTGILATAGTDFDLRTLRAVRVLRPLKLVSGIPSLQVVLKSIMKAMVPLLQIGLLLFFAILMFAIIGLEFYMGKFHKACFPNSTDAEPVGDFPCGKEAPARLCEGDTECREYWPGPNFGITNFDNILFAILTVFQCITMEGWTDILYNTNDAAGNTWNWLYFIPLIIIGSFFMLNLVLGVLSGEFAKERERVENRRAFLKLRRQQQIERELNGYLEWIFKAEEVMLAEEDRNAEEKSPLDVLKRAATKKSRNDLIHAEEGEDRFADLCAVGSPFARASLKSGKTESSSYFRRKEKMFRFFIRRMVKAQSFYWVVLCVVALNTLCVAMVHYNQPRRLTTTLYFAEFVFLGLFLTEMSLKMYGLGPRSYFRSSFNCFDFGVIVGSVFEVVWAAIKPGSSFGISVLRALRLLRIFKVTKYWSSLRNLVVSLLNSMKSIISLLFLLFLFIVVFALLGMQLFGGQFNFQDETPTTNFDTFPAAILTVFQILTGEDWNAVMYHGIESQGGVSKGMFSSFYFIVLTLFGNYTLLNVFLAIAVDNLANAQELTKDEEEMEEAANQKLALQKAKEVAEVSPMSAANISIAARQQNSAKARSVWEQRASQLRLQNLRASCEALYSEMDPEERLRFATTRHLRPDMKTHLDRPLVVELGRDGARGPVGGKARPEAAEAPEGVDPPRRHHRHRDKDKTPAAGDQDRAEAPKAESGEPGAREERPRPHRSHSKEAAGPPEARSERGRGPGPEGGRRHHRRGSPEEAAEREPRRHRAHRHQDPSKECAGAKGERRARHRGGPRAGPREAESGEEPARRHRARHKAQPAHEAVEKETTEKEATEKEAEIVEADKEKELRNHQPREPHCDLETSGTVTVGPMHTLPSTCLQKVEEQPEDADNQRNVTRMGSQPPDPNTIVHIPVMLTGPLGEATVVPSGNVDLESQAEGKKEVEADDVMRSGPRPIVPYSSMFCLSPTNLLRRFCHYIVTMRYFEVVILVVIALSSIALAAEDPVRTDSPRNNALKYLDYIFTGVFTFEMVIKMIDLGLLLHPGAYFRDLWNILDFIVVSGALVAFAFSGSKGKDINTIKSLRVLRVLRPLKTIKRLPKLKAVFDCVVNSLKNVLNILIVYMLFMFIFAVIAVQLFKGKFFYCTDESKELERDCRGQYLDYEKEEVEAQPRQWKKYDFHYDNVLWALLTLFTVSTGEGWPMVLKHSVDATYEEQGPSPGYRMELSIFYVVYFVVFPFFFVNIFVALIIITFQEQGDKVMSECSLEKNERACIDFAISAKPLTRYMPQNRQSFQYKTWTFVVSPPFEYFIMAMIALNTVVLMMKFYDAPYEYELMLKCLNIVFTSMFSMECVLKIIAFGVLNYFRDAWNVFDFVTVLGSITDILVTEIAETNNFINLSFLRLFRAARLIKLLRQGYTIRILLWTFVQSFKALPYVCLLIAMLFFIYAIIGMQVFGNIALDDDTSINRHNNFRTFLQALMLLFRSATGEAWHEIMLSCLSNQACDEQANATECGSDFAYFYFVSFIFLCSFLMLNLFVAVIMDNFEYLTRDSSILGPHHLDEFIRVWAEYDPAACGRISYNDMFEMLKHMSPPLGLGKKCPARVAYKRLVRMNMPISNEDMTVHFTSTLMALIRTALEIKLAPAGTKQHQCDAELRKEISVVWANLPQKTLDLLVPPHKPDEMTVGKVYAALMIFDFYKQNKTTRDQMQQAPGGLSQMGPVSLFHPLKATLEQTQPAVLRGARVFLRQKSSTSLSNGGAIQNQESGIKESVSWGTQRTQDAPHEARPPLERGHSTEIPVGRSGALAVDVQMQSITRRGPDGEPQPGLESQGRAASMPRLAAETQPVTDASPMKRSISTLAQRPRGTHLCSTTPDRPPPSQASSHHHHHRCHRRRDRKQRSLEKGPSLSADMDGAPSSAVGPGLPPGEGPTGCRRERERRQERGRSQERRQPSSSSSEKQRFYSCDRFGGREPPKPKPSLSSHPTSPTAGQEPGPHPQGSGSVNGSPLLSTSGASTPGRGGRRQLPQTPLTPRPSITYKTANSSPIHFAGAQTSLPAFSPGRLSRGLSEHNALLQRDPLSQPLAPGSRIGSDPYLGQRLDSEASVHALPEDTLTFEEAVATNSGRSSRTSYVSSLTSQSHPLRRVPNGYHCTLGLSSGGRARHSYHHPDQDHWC
T5 sequence (Q02410 whole entry): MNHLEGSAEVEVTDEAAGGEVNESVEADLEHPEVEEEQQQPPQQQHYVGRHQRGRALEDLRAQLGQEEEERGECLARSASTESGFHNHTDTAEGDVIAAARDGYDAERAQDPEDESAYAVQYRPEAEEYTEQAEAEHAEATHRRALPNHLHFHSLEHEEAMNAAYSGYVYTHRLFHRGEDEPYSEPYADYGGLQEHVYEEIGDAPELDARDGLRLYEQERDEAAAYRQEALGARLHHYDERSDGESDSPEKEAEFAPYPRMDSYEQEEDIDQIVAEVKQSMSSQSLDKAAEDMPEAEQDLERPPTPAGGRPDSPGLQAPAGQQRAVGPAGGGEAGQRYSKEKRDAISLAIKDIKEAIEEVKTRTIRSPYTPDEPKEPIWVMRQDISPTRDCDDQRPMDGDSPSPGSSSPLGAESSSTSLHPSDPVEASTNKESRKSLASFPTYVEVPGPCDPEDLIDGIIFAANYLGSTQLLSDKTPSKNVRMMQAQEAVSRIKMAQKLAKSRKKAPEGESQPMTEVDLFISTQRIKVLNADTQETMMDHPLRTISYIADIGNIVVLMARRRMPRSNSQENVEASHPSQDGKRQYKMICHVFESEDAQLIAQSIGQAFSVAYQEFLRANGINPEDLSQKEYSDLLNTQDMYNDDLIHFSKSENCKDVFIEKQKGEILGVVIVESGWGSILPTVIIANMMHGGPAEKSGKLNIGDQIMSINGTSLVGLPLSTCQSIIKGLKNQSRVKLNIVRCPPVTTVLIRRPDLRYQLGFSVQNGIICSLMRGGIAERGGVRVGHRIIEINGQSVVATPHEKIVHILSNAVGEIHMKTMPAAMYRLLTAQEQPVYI
T3 sequence (P21554 whole entry): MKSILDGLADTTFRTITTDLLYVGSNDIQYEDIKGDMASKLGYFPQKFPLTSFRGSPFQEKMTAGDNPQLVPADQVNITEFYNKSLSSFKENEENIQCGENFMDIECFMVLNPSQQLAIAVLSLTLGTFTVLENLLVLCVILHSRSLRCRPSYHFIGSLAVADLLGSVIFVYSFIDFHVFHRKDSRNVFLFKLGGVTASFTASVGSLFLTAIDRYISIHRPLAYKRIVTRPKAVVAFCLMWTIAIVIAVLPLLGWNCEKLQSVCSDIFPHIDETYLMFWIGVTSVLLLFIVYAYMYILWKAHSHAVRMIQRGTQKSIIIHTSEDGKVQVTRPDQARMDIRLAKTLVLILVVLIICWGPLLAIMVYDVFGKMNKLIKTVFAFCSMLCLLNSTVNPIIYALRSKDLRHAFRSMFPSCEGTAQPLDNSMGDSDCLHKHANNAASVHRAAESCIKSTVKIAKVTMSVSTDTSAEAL
G-protein coupled receptor 55, sequence (Q9Y2T6 whole entry): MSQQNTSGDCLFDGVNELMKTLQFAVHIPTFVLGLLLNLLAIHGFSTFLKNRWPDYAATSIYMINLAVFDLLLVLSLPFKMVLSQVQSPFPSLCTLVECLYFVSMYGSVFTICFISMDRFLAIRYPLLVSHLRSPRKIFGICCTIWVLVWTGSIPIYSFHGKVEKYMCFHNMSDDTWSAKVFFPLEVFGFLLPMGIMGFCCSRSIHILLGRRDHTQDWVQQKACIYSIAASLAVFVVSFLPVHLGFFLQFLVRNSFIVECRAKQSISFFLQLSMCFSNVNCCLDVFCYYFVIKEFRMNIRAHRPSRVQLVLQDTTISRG

EC50 (Cannabinoid receptor 2 [1]): > 32 µM (inactive)
IC50 (Cannabinoid receptor 2 [2]): > 32 µM (inactive)
EC50 [3]: > 32 µM (inactive)
IC50 [4]: > 32 µM (inactive)
IC50 (Cannabinoid receptor 1 [5]): > 32 µM (inactive)
EC50 [6]: > 32 µM (inactive)
EC50 (Cannabinoid receptor 1 [7]): > 32 µM (inactive)
Compound: CCc1sc(C(=O)Nc2cc(S(=O)(=O)N3CCOCC3)ccc2OC)cc1C

Compound: CSc1c(SCc2ccccc2)cnn(-c2ccccc2)c1=O
EC50 [8]: > 79.4 µM (not active)
EC50 [9]: 13.2 µM (inactive)
EC50 [10]: 10.7 µM (not active)
AC50 [11]: 2.51 µM (active)

IC50 [12]: 3.97 µM (active)
IC50 [13]: 5.4 µM (active)
IC50 [14]: > 50 µM (inactive)
IC50 [15]: 0.471 µM (active)
IC50 [16]: 0.775 µM (active)
IC50 [17]: 3.78 µM (active)
IC50 [18]: 1.54 µM (active)
IC50 [19]: 1.3 µM (active)
IC50 [20]: 2.41 µM (active)
IC50 [21]: < 1.24 µM (active)
IC50 [22]: 44.3 µM (active)
IC50 [23]: 4.94 µM (active)
IC50 [24]: 1.74 µM (active)
IC50 [25]: 1.86 µM (active)
Compound: CCOc1cc(/C=C(\C#N)C(=O)Nc2cccc(C(=O)O)c2)ccc1OCc1ccc(Br)cc1

EC50 [26]: > 100 µM (inactive)
Compound: COc1cc(/C=N\NS(=O)(=O)c2ccccc2)cc(OC)c1OC

From ChEMBL document CHEMBL1201862, “PubChem BioAssay data set” (2004)
